PubChem BioAssay AID256 (DTP/NCI, 2004)
Several values for one entry are separate records, joined by “and”; a condition that tells them apart may be missing. Equal values may be shown once. Inconclusive results and toxic doses are left out.

Test system: CD2F1 mice, L1210 leukemia ip, survival T/C
Assay: NCI In Vivo Anticancer Drug Screen. Data for tumor model L1210 Leukemia (intraperitoneal) in CD2F1 (CDF1) mice
Conditions: higher = longer survival
In short: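 Implant tumor; dose compound or vehicle; measure endpoint in both groups; report treated divided by control.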

[1] = endpoint: mean survival time, dose: 100.0 mg/kg/injection, schedule: Q04DX003 (ip), vehicle: saline with Tween-80
[2] = endpoint: mean survival time, dose: 200.0 mg/kg/injection, schedule: Q04DX003 (ip), vehicle: saline with Tween-80
[3] = endpoint: mean survival time, dose: 100.0 mg/kg/injection, schedule: Q04DX002 (ip), vehicle: saline
[4] = endpoint: mean survival time, dose: 200.0 mg/kg/injection, schedule: Q04DX002 (ip), vehicle: saline
[5] = endpoint: mean survival time, dose: 100.0 mg/kg/injection, schedule: Q01DX001 (ip), vehicle: saline with Tween-80
[6] = endpoint: mean survival time, dose: 200.0 mg/kg/injection, schedule: Q01DX001 (ip), vehicle: saline with Tween-80
[7] = endpoint: mean survival time, dose: 100.0 mg/kg/injection, schedule: Q01DX009 (ip), vehicle: saline with Tween-80
[8] = endpoint: mean survival time, dose: 200.0 mg/kg/injection, schedule: Q01DX009 (ip), vehicle: saline with Tween-80
[9] = endpoint: mean survival time, dose: 400.0 mg/kg/injection, schedule: Q01DX009 (ip), vehicle: saline with Tween-80
[10] = endpoint: mean survival time, dose: 400.0 mg/kg/injection, schedule: Q01DX001 (ip), vehicle: saline with Tween-80
[11] = endpoint: mean survival time, dose: 12.5 mg/kg/injection, schedule: Q01DX009 (ip), vehicle: saline
[12] = endpoint: mean survival time, dose: 25.0 mg/kg/injection, schedule: Q01DX009 (ip), vehicle: saline

CC1(O)CC2C=CC1CC2 (configuration not stated)
T/C [1]: 101 % of control | T/C [2]: 104 % of control | T/C (endpoint: mean survival time, dose: 400.0 mg/kg/injection, schedule: Q04DX003 (ip), vehicle: saline with Tween-80): 95 % of control

Cc1nc(C(Cl)(Cl)Cl)[nH]c(=O)c1SCCO
T/C (endpoint: median survival time, dose: 25.0 mg/kg/injection, schedule: Q01DX009 (ip), vehicle: distilled water + alcohol): 97 % of control and 100 % of control and 102 % of control | T/C (endpoint: median survival time, dose: 25.0 mg/kg/injection, schedule: Q01DX009 (sc), vehicle: distilled water + Tween-80 + alcohol): 101 % of control | T/C (endpoint: median survival time, dose: 50.0 mg/kg/injection, schedule: Q01DX009 (sc), vehicle: distilled water + Tween-80 + alcohol): 101 % of control | T/C (endpoint: median survival time, dose: 100.0 mg/kg/injection, schedule: Q01DX009 (sc), vehicle: distilled water + Tween-80 + alcohol): 101 % of control | T/C (endpoint: median survival time, dose: 200.0 mg/kg/injection, schedule: Q01DX009 (sc), vehicle: distilled water + Tween-80 + alcohol): 103 % of control

CN(C)c1ccc(Nc2c3ccccc3nc3ccccc23)cc1
T/C (endpoint: mean survival time, dose: 120.0 mg/kg/injection, schedule: Q03HX040 (oral), vehicle: saline): 154 % of control | T/C (endpoint: mean survival time, dose: 150.0 mg/kg/injection, schedule: Q03HX008 (oral), vehicle: saline): 124 % of control | T/C (endpoint: mean survival time, dose: 300.0 mg/kg/injection, schedule: Q03HX016 (oral), vehicle: saline): 152 % of control | T/C (endpoint: median survival time, dose: 22.5 mg/kg/injection, schedule: Q01DX009 (ip), vehicle: saline): 111 % of control | T/C (endpoint: median survival time, dose: 45.0 mg/kg/injection, schedule: Q01DX009 (ip), vehicle: saline): 161 % of control and 185 % of control | T/C (endpoint: median survival time, dose: 90.0 mg/kg/injection, schedule: Q01DX009 (ip), vehicle: saline): 188 % of control and 207 % of control

NCC1=NCCN1
T/C [3]: 124 % of control | T/C [4]: 95 % of control | T/C (endpoint: mean survival time, dose: 400.0 mg/kg/injection, schedule: Q04DX002 (ip), vehicle: saline): 102 % of control

O=C(O)c1c(F)c(F)c(-c2c(F)c(F)c(C(=O)O)c(C(=O)O)c2F)c(F)c1C(=O)O
T/C [5]: 95 % of control | T/C [6]: 96 % of control

CC(C)(C)C(O)CC(O)(C(F)(F)Cl)C(F)(F)Cl (configuration not stated)
T/C [7]: 101 % of control | T/C [8]: 109 % of control | T/C [9]: 105 % of control

NCc1ccc(OCc2nc(N)nc(N)c2-c2ccc(Cl)c(Cl)c2)cc1
T/C [5]: 92 % of control | T/C [6]: 91 % of control

O=C(N/N=C\c1cc(Cl)ccc1[N+](=O)[O-])c1ccccc1
T/C (endpoint: mean survival time, dose: 100.0 mg/kg/injection, schedule: Q01DX009 (ip), vehicle: Klucel (hydroxypropylcellulose) (HPC)): 100 % of control | T/C (endpoint: mean survival time, dose: 200.0 mg/kg/injection, schedule: Q01DX009 (ip), vehicle: Klucel (hydroxypropylcellulose) (HPC)): 91 % of control | T/C (endpoint: mean survival time, dose: 400.0 mg/kg/injection, schedule: Q01DX009 (ip), vehicle: Klucel (hydroxypropylcellulose) (HPC)): 94 % of control

CC(=O)CC(=O)Nc1cc(Cl)c(NC(=O)CC(C)=O)cc1Cl
T/C (endpoint: mean survival time, dose: 44.0 mg/kg/injection, schedule: Q04DX003 (ip), vehicle: saline with Tween-80): 104 % of control | T/C (endpoint: mean survival time, dose: 66.0 mg/kg/injection, schedule: Q04DX003 (ip), vehicle: saline with Tween-80): 96 % of control | T/C [7]: 97 % of control | T/C [1]: 98 % of control | T/C (endpoint: mean survival time, dose: 150.0 mg/kg/injection, schedule: Q04DX003 (ip), vehicle: saline with Tween-80): 100 % of control | T/C [8]: 97 % of control | T/C [9]: 97 % of control

CC1CC(NC(=S)NC(=O)c2ccccc2Cl)CC(C)(C)C1 (configuration not stated)
T/C [7]: 86 % of control | T/C [8]: 86 % of control | T/C [9]: 86 % of control

O=C(Cc1ccc([N+](=O)[O-])cc1)Nc1ccc(O)cc1
T/C [5]: 98 % of control | T/C [6]: 104 % of control | T/C [10]: 101 % of control

c1ccc2c(CC[n+]3cccc(C4OCCO4)c3)c[nH]c2c1
T/C [11]: 100 % of control | T/C (endpoint: mean survival time, dose: 12.5 mg/kg/injection, schedule: Q04DX003 (ip), vehicle: saline): 92 % of control | T/C [12]: 105 % of control | T/C (endpoint: mean survival time, dose: 25.0 mg/kg/injection, schedule: Q04DX003 (ip), vehicle: saline): 96 % of control | T/C (endpoint: mean survival time, dose: 50.0 mg/kg/injection, schedule: Q01DX009 (ip), vehicle: saline): 100 % of control | T/C (endpoint: mean survival time, dose: 50.0 mg/kg/injection, schedule: Q04DX003 (ip), vehicle: saline): 89 % of control

CCCC(O)C(CC)[N+](=O)[O-] (configuration not stated)
T/C [5]: 102 % of control | T/C [6]: 98 % of control | T/C [10]: 94 % of control

CCCCS(=O)C(Cl)CCC (configuration not stated)
T/C [1]: 97 % of control | T/C [2]: 100 % of control

O=c1c2ccsc2ncn1C1OC(CO)C(O)C1O (configuration not stated)
T/C (endpoint: mean survival time, dose: 12.5 mg/kg/injection, schedule: Q01DX009 (ip), vehicle: saline with Tween-80): 111 % of control | T/C (endpoint: mean survival time, dose: 25.0 mg/kg/injection, schedule: Q01DX009 (ip), vehicle: saline with Tween-80): 111 % of control | T/C (endpoint: mean survival time, dose: 50.0 mg/kg/injection, schedule: Q01DX009 (ip), vehicle: saline with Tween-80): 91 % of control

N=c1c2ncn(C3OC(CO)C(O)C3O)c2ncn1N (configuration not stated)
T/C (endpoint: mean survival time, dose: 50.0 mg/kg/injection, schedule: Q01DX005 (ip), vehicle: water): 101 % of control | T/C (endpoint: mean survival time, dose: 100.0 mg/kg/injection, schedule: Q01DX005 (ip), vehicle: water): 101 % of control | T/C (endpoint: mean survival time, dose: 200.0 mg/kg/injection, schedule: Q01DX005 (ip), vehicle: water): 114 % of control

CCOC(=O)/C(=C/[N-]c1ccccc1[N-]/C=C(\C(C)=O)C(=O)OCC)C(C)=O.[Pt+2]
T/C (endpoint: median survival time, dose: 10.0 mg/kg/injection, schedule: Q04DX003 (ip), vehicle: saline with Tween-80): 98 % of control | T/C (endpoint: median survival time, dose: 20.0 mg/kg/injection, schedule: Q04DX003 (ip), vehicle: saline with Tween-80): 96 % of control | T/C (endpoint: median survival time, dose: 40.0 mg/kg/injection, schedule: Q04DX003 (ip), vehicle: saline with Tween-80): 89 % of control | T/C (endpoint: median survival time, dose: 50.0 mg/kg/injection, schedule: Q04DX003 (ip), vehicle: saline with Tween-80): 96 % of control | T/C (endpoint: median survival time, dose: 80.0 mg/kg/injection, schedule: Q04DX003 (ip), vehicle: saline with Tween-80): 101 % of control | T/C (endpoint: median survival time, dose: 100.0 mg/kg/injection, schedule: Q04DX003 (ip), vehicle: saline with Tween-80): 97 % of control | T/C (endpoint: median survival time, dose: 200.0 mg/kg/injection, schedule: Q04DX003 (ip), vehicle: saline with Tween-80): 101 % of control

COC(/C=C\C(OC)OC)OC
T/C [11]: 101 % of control | T/C [12]: 96 % of control

CCC[CH2][Pb]([Cl])([CH2]CCC)[CH2]CCC
T/C (endpoint: mean survival time, dose: 1.5 mg/kg/injection, schedule: Q01DX009 (ip), vehicle: saline with Tween-80): 96 % of control | T/C (endpoint: mean survival time, dose: 3.0 mg/kg/injection, schedule: Q01DX009 (ip), vehicle: saline with Tween-80): 96 % of control | T/C (endpoint: mean survival time, dose: 6.0 mg/kg/injection, schedule: Q01DX009 (ip), vehicle: saline with Tween-80): 93 % of control | T/C (endpoint: mean survival time, dose: 6.25 mg/kg/injection, schedule: Q04DX003 (ip), vehicle: saline with Tween-80): 93 % of control | T/C (endpoint: mean survival time, dose: 12.5 mg/kg/injection, schedule: Q04DX003 (ip), vehicle: saline with Tween-80): 87 % of control | T/C (endpoint: mean survival time, dose: 25.0 mg/kg/injection, schedule: Q04DX003 (ip), vehicle: saline with Tween-80): 93 % of control

N#CCOc1cccc([N+](=O)[O-])c1
T/C [1]: 103 % of control | T/C [2]: 96 % of control

Cc1cc(C)c(CN)cc1C
T/C (endpoint: mean survival time, dose: 5.0 mg/kg/injection, schedule: Q01DX009 (ip), vehicle: saline with Tween-80): 96 % of control | T/C (endpoint: mean survival time, dose: 10.0 mg/kg/injection, schedule: Q01DX009 (ip), vehicle: saline with Tween-80): 105 % of control | T/C (endpoint: mean survival time, dose: 20.0 mg/kg/injection, schedule: Q01DX009 (ip), vehicle: saline with Tween-80): 92 % of control

C/C(=N\NS(=O)(=O)c1ccc(C)cc1)c1ccccc1
T/C (endpoint: mean survival time, dose: 100.0 mg/kg/injection, schedule: Q04DX002 (ip), vehicle: saline with Tween-80): 108 % of control | T/C (endpoint: mean survival time, dose: 200.0 mg/kg/injection, schedule: Q04DX002 (ip), vehicle: saline with Tween-80): 96 % of control | T/C (endpoint: mean survival time, dose: 400.0 mg/kg/injection, schedule: Q04DX002 (ip), vehicle: saline with Tween-80): 103 % of control

CCN(CC)C(=S)SCn1ncc2ccc([N+](=O)[O-])cc21
T/C (endpoint: mean survival time, dose: 100.0 mg/kg/injection, schedule: Q01DX001 (ip), vehicle: saline): 95 % of control | T/C (endpoint: mean survival time, dose: 200.0 mg/kg/injection, schedule: Q01DX001 (ip), vehicle: saline): 92 % of control | T/C (endpoint: mean survival time, dose: 400.0 mg/kg/injection, schedule: Q01DX001 (ip), vehicle: saline): 89 % of control

CCCCC(N)C(=O)O (configuration not stated)
T/C [5]: 104 % of control | T/C (endpoint: mean survival time, dose: 100.0 mg/kg/injection, schedule: Q04DX003 (ip), vehicle: saline): 105 % of control | T/C [6]: 104 % of control | T/C (endpoint: mean survival time, dose: 200.0 mg/kg/injection, schedule: Q04DX003 (ip), vehicle: saline): 103 % of control | T/C [10]: 102 % of control | T/C (endpoint: mean survival time, dose: 400.0 mg/kg/injection, schedule: Q04DX003 (ip), vehicle: saline): 95 % of control

CC1CCOC1=O (configuration not stated)
T/C (endpoint: mean survival time, dose: 50.0 mg/kg/injection, schedule: Q04DX002 (ip), vehicle: saline): 98 % of control | T/C [3]: 98 % of control | T/C [4]: 102 % of control
